Source: patent publication US11186577B2, “Vasopressin receptor antagonists and products and methods related thereto” (BlackThorn Therapeutics, Inc., priority 2017, dated 2021)
pIC50: −log10 of the molar value. Read-outs that look alike come from different tables or passages of the source.

Target: human Arginine Vasopressin Receptor 1a (AVPR1a) (Homo sapiens (Human), UniProt P37288)
Assay: Vasopressin V1A receptor antagonist assay (AVP-evoked calcium, FLIPR, CHO-AVPR1a cells)
Type: cell-based
Procedure: The purpose of this assay was to determine the inhibitory effect of synthesized compounds on the Vasopressin V1a receptor. The assay as performed in Chinese Hamster Ovary (CHO) cells expressing the human Arginine Vasopressin Receptor 1a (AVPR1a). Arginine Vasopressin (AVP) evokes an increase in intracellular calcium in CHO-AVPR1a cells which is measured in a fluorescence assay on the FLIPR^TETRA using calcium sensitive dyes. Test compounds were assessed for their ability to affect the magnitude of the response to AVP, with antagonists showing a concentration-dependent reduction in the AVP-mediated fluorescence. Compounds were tested in duplicate in a 10-point, 1:3 dilution series starting at a nominal concentration of 3 μM in the assay.
CHO-AVPR1a cells were maintained in routine culture in T175 Flasks at 37° C., 5% CO2. The growth medium consists of Ham's F12 media supplemented with 10% v/v fetal bovine serum, 1× non-essential amino acids, and 0.4 mg/ml Geneticin G418.
On day one, cells were harvested from T175 flasks when they are 80-90% confluent by first washing the cell monolayer with PBS and then dissociated using trypsin 0.05%/EDTA (3 mL for a T175 Flask). The flasks were incubated at room temperature until the cells detached. To the cell suspension, 10 ml of growth media was added and the cell density determined using the Vi-Cell automated cell counter. The cells were spun at 1000 rpm for 3 minutes, then the supernatant was carefully removed and discarded. The cell pellet was re-suspended at 6.0e^5 cells/ml in growth media. 25 μL of cells in growth media was dispensed into each well (15,000 cells per well) of a poly-D-lysine coated black, clear bottomed, 384-well plate. The plates were incubated at 37° C., 5% CO2 overnight.
At the start of each assay day, the potency of AVP was assessed and an EC80 concentration determined for subsequent compound profiling. Assays were performed using a two-step addition protocol on the FLIPR^TETRA; first addition of 5 μl of control or test compound at 10× final in assay buffer with 15 min incubation at 37° C., 5% CO2 followed by 10 μl of AVP at 6× final concentration in assay buffer. […] The assay buffer consisted of HBSS (+Ca/+Mg) supplemented with 20 mM HEPES, and for the preparation of the AVP agonist only, 0.1% w/v bovine serum albumin. The assay was initiated by the removal of growth media from the cells and replacement with 45 μl of Calcium-6 dye (Molecular Devices) prepared at 1× in assay buffer. Cells are loaded with dye for 60-90 min at 37° C., 5% CO2 before initiation of the FLIPR^TETRA protocol. […] At the end of the incubation period, 10 μl of AVP in assay buffer containing 0.1% BSA was added at the previously determined EC80 concentration.

human Arginine Vasopressin Receptor 1a (AVPR1a), sequence (P37288 whole entry): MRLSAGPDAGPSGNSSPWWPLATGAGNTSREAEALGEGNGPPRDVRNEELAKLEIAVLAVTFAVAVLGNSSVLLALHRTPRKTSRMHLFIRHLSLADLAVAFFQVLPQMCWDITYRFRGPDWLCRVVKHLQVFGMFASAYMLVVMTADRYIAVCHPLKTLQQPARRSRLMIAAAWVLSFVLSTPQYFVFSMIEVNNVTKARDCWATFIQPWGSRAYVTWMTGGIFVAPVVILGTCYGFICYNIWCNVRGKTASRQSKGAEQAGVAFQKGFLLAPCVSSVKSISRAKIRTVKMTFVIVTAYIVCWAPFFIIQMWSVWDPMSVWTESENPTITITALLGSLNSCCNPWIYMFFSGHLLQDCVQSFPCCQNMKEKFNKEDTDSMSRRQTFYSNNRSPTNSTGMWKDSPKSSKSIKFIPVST

| Structure (SMILES) | pIC50 (read-out: V1a IC50) | pIC50 |
| --- | --- | --- |
| Cc1ccnc(N2CC3(CC(c4nnc5n4-c4ccc(Cl)cc4CN(C)C5)C3)C2)c1 [compound 241, 8-chloro-5-methyl-1-(2-(4-methylpyridin-2-yl)-2-azaspiro[3.3]heptan-6-yl)-5,6-dihydro-4H-benzo[f][1,2,4]triazolo[4,3-a][1,4]diazepine] | > 7.00 |  |
| CN1Cc2cc(Cl)ccc2-n2c(nnc2C2CC3(C2)CN(c2noc4ccccc24)C3)C1 [compound 256] | > 7.00 |  |
| CC(=O)N1Cc2cc(Cl)ccc2-n2c(nnc2C2CC3(C2)CN(c2cccnn2)C3)C1 [compound 66] |  | 6.30 to 7.00 |
| CN1Cc2cc(Cl)ccc2-n2c(nnc2C2CC3(C2)CN(S(=O)(=O)C2CC2)C3)C1 [compound 26] |  | 6.30 to 7.00 |
| Fc1cncnc1N1CC2(CC(c3nnc4n3-c3ccc(Cl)cc3CN(C3CC3)C4)C2)C1 [compound 247] | > 7.00 |  |
| O=C(C(F)F)N1Cc2cc(Cl)ccc2-n2c(nnc2C2CC3(C2)CN(c2cnccn2)C3)C1 [compound 82] | > 7.00 |  |
| CN1Cc2cc(Cl)ccc2-n2c(nnc2C2CC3(C2)CN(C(=O)C2CC2(F)F)C3)C1 (stereo not drawn) [compound 124] |  | 6.30 to 7.00 |
| CCOC(=O)N1Cc2cc(Cl)ccc2-n2c(C3CC4(C3)CN(c3nccc(C(F)(F)F)n3)C4)nnc2C1C (stereo not drawn) [compound 190] | > 7.00 |  |
| Cn1nc(N2CC3(CC(c4nnc5n4-c4ccc(Cl)cc4CN(C4CC4)C5)C3)C2)c2cccnc21 [compound 250] | > 7.00 |  |
| CC1c2nnc(C3CC4(C3)CN(c3ncc(F)cn3)C4)n2-c2ccc(Cl)cc2CN1C(=O)OC(CF)CF (single isomer, unassigned) [Cpd 194B] | < 6.00 |  |
| Cc1cc(N2CC3(CC(c4nnc5n4-c4ccc(Cl)cc4CN(C)C5)C3)C2)ncc1F [compound 252] | > 7.00 |  |
| N#Cc1cccc(N2CC3(CC(c4nnc5n4-c4ccc(Cl)cc4CN(C4CC4)C5)C3)C2)n1 [compound 228] | > 7.00 |  |
| COCC(=O)N1CC2(CC(c3nnc4n3-c3ccc(Cl)cc3CN(C)C4)C2)C1 [compound 126] | < 6.00 |  |
| Cc1ccc(F)c(N2CC3(CC(c4nnc5n4-c4ccc(Cl)cc4CN(C4CC4)C5)C3)C2)n1 [compound 273] | > 7.00 |  |
| CC(C)OC(=O)N1Cc2cc(Cl)ccc2-n2c(C3CC4(C3)CN(c3ncccn3)C4)nnc2C1C (single isomer, unassigned) [Cpd 167B] | < 6.00 |  |
| COCCN1Cc2cc(Cl)ccc2-n2c(nnc2C2CC3(C2)CN(c2cnccn2)C3)C1 [compound 43] | > 7.00 |  |
| CN1Cc2cc(Cl)ccc2-n2c(nnc2C2CC3(C2)CN(c2nn(C)c4ncccc24)C3)C1 [compound 231] |  | 6.30 to 7.00 |
| CN1Cc2cc(Cl)ccc2-n2c(nnc2C2CC3(C2)CN(c2nc4cnccc4n2C)C3)C1 [compound 258] | < 6.00 |  |
| Cc1cncnc1N1CC2(CC(c3nnc4n3-c3ccc(Cl)cc3CN(C)C4)C2)C1 [compound 251] |  | 6.30 to 7.00 |
| CC1c2nnc(C3CC4(C3)CN(c3ccc(F)cn3)C4)n2-c2ccc(Cl)cc2CN1C(=O)C(C)(C)F (stereo not drawn) [compound 178] | > 7.00 |  |
| Clc1ccc2c(c1)CN(C1CCC1)Cc1nnc(C3CC4(C3)CN(c3cnccn3)C4)n1-2 [compound 40] | > 7.00 |  |
| CN1Cc2cc(Cl)ccc2-n2c(nnc2C2CC3(C2)CN(C(=O)CC2CC2)C3)C1 [compound 32] | < 6.00 |  |
| CC1(N2Cc3cc(Cl)ccc3-n3c(nnc3C3CC4(C3)CN(c3ncc(F)cn3)C4)C2)CC1 [compound 261] | > 7.00 |  |
| CN1Cc2cc(Cl)ccc2-n2c(nnc2C2CC3(C2)CN(C(=O)C2CCOCC2)C3)C1 [compound 27] | < 6.00 |  |
| O=C(NC1CC1)N1Cc2cc(Cl)ccc2-n2c(nnc2C2CC3(C2)CN(c2ccc(F)cn2)C3)C1 [compound 246, 8-chloro-N-cyclopropyl-1-(2-(5-fluoropyridin-2-yl)-2-azaspiro[3.3]heptan-6-yl)-4H-benzo[f][1,2,4]triazolo[4,3-a][1,4]diazepine-5(6H)-carboxamide] | > 7.00 |  |
| CC(C)OC(=O)N1Cc2cc(Cl)ccc2-n2c(C3CC4(C3)CN(c3ccncn3)C4)nnc2C1C (single isomer, unassigned) [Cpd 187B] | < 6.00 |  |
| COCCN1Cc2cc(Cl)ccc2-n2c(nnc2C2CC3(C2)CN(c2cccnc2)C3)C1 [compound 55] |  | 6.30 to 7.00 |

| Structure (SMILES) | pIC50 (read-out: V1a IC50) | pIC50 |
| --- | --- | --- |
| Cc1cc(C)nc(N2CC3(CC(c4nnc5n4-c4ccc(Cl)cc4CN(C4CC4)C5)C3)C2)c1 [compound 275] | > 7.00 |  |
| Cc1cnc(N2CC3(CC(c4nnc5n4-c4ccc(Cl)cc4CN(C)C5)C3)C2)nc1 [compound 239] |  | 6.30 to 7.00 |
| Cc1cncc(N2CC3(CC(c4nnc5n4-c4ccc(Cl)cc4CN(C4CC4)C5)C3)C2)n1 [compound 221] | > 7.00 |  |
| Cc1nccc(N2CC3(CC(c4nnc5n4-c4ccc(Cl)cc4CN(C4CC4)C5)C3)C2)n1 [compound 270] |  | 6.30 to 7.00 |
| CC1(N2Cc3cc(Cl)ccc3-n3c(nnc3C3CC4(C3)CN(c3nccc(C#N)n3)C4)C2)CC1 [compound 263] | > 7.00 |  |
| COC(=O)N1Cc2cc(Cl)ccc2-n2c(C3CC4(C3)CN(c3ncccn3)C4)nnc2C1C (single isomer, unassigned) [Cpd 166B] | 6.00 to 6.30 |  |
| O=C(C1C[C@@H]1F)N1Cc2cc(Cl)ccc2-n2c(nnc2C2CC3(C2)CN(c2ccc(F)cn2)C3)C1 (stereo partly drawn) [compound 159] | > 7.00 |  |
| Clc1ccc2c(c1)CN(C1CC1)Cc1nnc(C3CC4(C3)CN(c3ccncn3)C4)n1-2 [compound 233] | > 7.00 |  |
| CC1c2nnc(C3CC4(C3)CN(c3ccc(F)cn3)C4)n2-c2ccc(Cl)cc2CN1C (single isomer, unassigned) [Cpd 179B] | 6.30 to 7.00 |  |
| COC(=O)N1Cc2cc(Cl)ccc2-n2c(nnc2C2CC3(C2)CN(c2ccncn2)C3)C1 [compound 186] |  | 6.30 to 7.00 |
| CN1Cc2cc(Cl)ccc2-n2c(nnc2C2CC3(C2)CN(C(=O)C2(C)CC2)C3)C1 [compound 31] |  | 6.30 to 7.00 |
| COC(=O)N1Cc2cc(Cl)ccc2-n2c(C3CC4(C3)CN(c3cnccn3)C4)nnc2C1C (single isomer, unassigned) [Cpd 165B] | 6.00 to 6.30 |  |
| CC1c2nnc(C3CC4(C3)CN(c3ccccn3)C4)n2-c2ccc(Cl)cc2CN1C(=O)C1(F)CC1 (single isomer, unassigned) [Cpd 181B] | 6.30 to 7.00 |  |
| CN1Cc2cc(Cl)ccc2-n2c(nnc2C2CC3(C2)CN(c2ncncc2F)C3)C1 [compound 238] | > 7.00 |  |
| CN1Cc2cc(Cl)ccc2-n2c(nnc2C2CC3(C2)CN(C(=O)OC2CCOCC2)C3)C1 [compound 29] | < 6.00 |  |
| CC(C)OC(=O)N1Cc2cc(Cl)ccc2-n2c(C3CC4(C3)CN(c3ccc(F)cn3)C4)nnc2C1C (single isomer, unassigned) [Cpd 163B] | 6.00 to 6.30 |  |
| CN1Cc2cc(Cl)ccc2-n2c(nnc2C2CC3(C2)CN(c2nccc4c2ncn4C)C3)C1 [compound 257] |  | 6.00 to 6.30 |
| Cc1cncc(N2CC3(CC(c4nnc5n4-c4ccc(Cl)cc4CN(C)C5)C3)C2)n1 [compound 237] | > 7.00 |  |
| COC(=O)N1Cc2cc(Cl)ccc2-n2c(C3CC4(C3)CN(c3ncncc3F)C4)nnc2C1C (single isomer, unassigned) [Cpd 188A] | > 7.00 |  |
| CC(C)OC(=O)N1Cc2cc(Cl)ccc2-n2c(C3CC4(C3)CN(c3ncc(F)cn3)C4)nnc2C1C (single isomer, unassigned) [Cpd 201B] | 6.00 to 6.30 |  |
| COC(=O)N1Cc2cc(Cl)ccc2-n2c(C3CC4(C3)CN(c3ccncn3)C4)nnc2C1C (stereo not drawn) [compound 184, methyl 8-chloro-4-methyl-1-(2-(pyrimidin-4-yl)-2-azaspiro[3.3]heptan-6-yl)-4H-benzo[f][1,2,4]triazolo[4,3-a][1,4]diazepine-5(6H)-carboxylate] | 6.30 to 7.00 |  |
| COC(=O)N1Cc2cc(Cl)ccc2-n2c(C3CC4(C3)CN(c3ccncn3)C4)nnc2C1C (single isomer, unassigned) [Cpd 184B] | < 6.00 |  |
| COc1cc(N2CC3(CC(c4nnc5n4-c4ccc(Cl)cc4CN(C4CC4)C5)C3)C2)ncc1F [compound 249] | > 7.00 |  |
| CC(C)N1Cc2cc(Cl)ccc2-n2c(nnc2C2CC3(C2)CN(c2cccnc2)C3)C1 [compound 51] |  | 6.30 to 7.00 |
| CC1c2nnc(C3CC4(C3)CN(c3ncc(F)cn3)C4)n2-c2ccc(Cl)cc2CN1C(=O)OC1CC1 (single isomer, unassigned) [Cpd 192B] | < 6.00 |  |
| Cc1cnc(N2CC3(CC(c4nnc5n4-c4ccc(Cl)cc4CN(C4(C)CC4)C5)C3)C2)nc1 [compound 253] |  | 6.30 to 7.00 |
| O=C(C1C[C@H]1F)N1Cc2cc(Cl)ccc2-n2c(nnc2C2CC3(C2)CN(c2ccc(F)cn2)C3)C1 (stereo partly drawn) [compound 158] | > 7.00 |  |
